From patent US11466273B2, “Monocarboxylate transporter 4 (MCT4) antisense oligonucleotide (ASO) inhibitors for use as therapeutics in the treatment of cancer” (THE UNIVERSITY OF BRITISH COLUMBIA, priority 2015, dated 2022) come the findings set out here.

Strand notation (5' to 3'): a small letter for the sugar, then the base; units joined by * are phosphorothioate-linked, units joined directly phosphodiester-linked; [ ] holds rarer units or linkages, { } end groups; capitals alone tell only the bases. d = 2'-deoxy (DNA)

One data set has as its system MCT4. The data set can be described thus: Percent inhibition of MCT4 by MCT4 ASOs (knock-down after transfection, qPCR/Western blot). Type of data set: cell-based, human. As for the experimental part: First-generation phosphorothioate-modified ASOs against human MCT4 were rationally designed by selecting sequences containing favourable motifs while excluding unfavourable ones (Matveeva et al., 2000). Specificity of MCT4-targeting sequences, compared to human and mouse genes (at least 3 of 20 bases mismatched), was evaluated using BLAST. Ten sequences SEQ ID No: 1, 4, 5, 9, 11, 30, 36, 37, 40 and 41 (see TABLE A) distributed throughout the length of the transcript with perfect complementarity to all human MCT4 transcript variants (NM_001042422.2, NM_001042423.2, NM_001206950.1, NM_001206951.1, NM_001206952.1, and NM_004207.3) were selected and synthesized by Eurofins MWG Operon. The knock-down efficiencies of these ten ASOs were tested by determining target mRNA and protein expression 48 hours after transfection of cells using qPCR and Western blotting. Two candidate ASOs (#1 and #14—SEQ ID NOs: 1 and 5, respectively) were selected for further studies. Sequences: ASO #1 (SEQ ID NO: 1), 5′-[…]-3′; ASO #14 (SEQ ID NO: 5), 5′-[…]-3′; a published non-targeting control ASO, 5′-[…]-3′ (Mullick et al., 2011; Samuel et al., 2006).
Cells were transfected in 6-well plates with ASOs at 100 nM for 48 hours (unless otherwise indicated) using Oligofectamine™ (Invitrogen™, Carlsbad, Calif.) or with MCT4-targeting siRNAs and controls (Dharmacon™, Chicago, Ill.) at 50 nM for 48 hours using Lipofectamine™ 2000 (Invitrogen™), following the manufacturer's instructions.
Total RNA was isolated using the RNeasy Mini Kit™ (Qiagen Inc.™, Hilden, Germany) and cDNA synthesized using the QuantiTect Reverse Transcription Kit™ (Qiagen™). Primers were designed using Primer-BLAST™. qRT-PCR reactions using KAPA SYBR Fast Universal™ (Kapa Biosystems™, Woburn, Mass.) were performed in triplicate in a ViiA 7 Real-Time PCR™ system (Applied Biosystems™, Foster City, Calif.). Target genes were normalized to a geometric average of 3 internal reference genes (Vandesompele et al., 2002).
Cells were harvested and lysed in RIPA buffer (50 mM Tris-Cl pH 7.4, 150 mM NaCl, 1% Igepal, 0.5% Na-deoxycholate, 0.1% SDS) supplemented with a complete protease inhibitor cocktail (Roche, Nutley, N.J.). The protein concentration of the lysate was determined by Pierce BCA Protein Assay™ (Thermo Scientific™, Waltham, Mass.). The lysate was run on 8% SDS polyacrylamide gel (20 ug of protein per lane) and proteins were transferred onto PVDF membrane (Millipore™, Billerica, Mass.). The blot was blocked with the Odyssey™ blocking buffer (Li-cor Biosciences™) and probed with anti-MCT4 antibody. Vinculin was used as a loading control. Following overnight incubation at 4° C., the primary antibody was probed with the corresponding secondary antibody and detected using the Odyssey Infrared Imaging System™ (Li-cor Biosciences™) and Image Studio Version 3.1™ (Li-cor Biosciences™). Densitometry analysis was done using ImageJ (U.S. National Institutes of Health, Bethesda, Md.).
(Real-time PCR tracks product formation cycle by cycle.)

A further data set concerns PC3 cells. The data set can be described thus: Combination screening, total live PC3 cell numbers. Format: cell-based, human. The note with it: Homo sapiens, PC-3; approximate IC50 used for combination screening, 48 hours; read-out: IC50 Concentration. An excerpt: Human PC-3 and DU145 CRPC cells, human LNCaP prostate cancer cells, and mouse TRAMPC2 prostate cancer cells were purchased from the American Type Culture Collection (ATCC); C4-2 CRPC cells were from the Vancouver Prostate Centre, Vancouver, BC, Canada. Human monolayer cultures were maintained in RPMI-1640 (GE Healthcare Hyclone™, Logan, Utah) supplemented with 10% fetal bovine serum (FBS) (GE Healthcare Hyclone™, Logan, Utah) while TRAMPC2 cells were maintained in DMEM (GE Healthcare Hyclone™, Logan, Utah) supplemented with 5% FBS. For cell counting, cells were trypsinized to form a single cell suspension and counted using a TC20 Automated Cell Counter (Bio-Rad, Hercules, Calif.). Cell viability was assessed by trypan blue exclusion.
Various combination strategies were screened at the approximate IC50 concentrations to determine whether synergistic effects may be found by combining current cancer therapeutics (see TABLE D) with MCT4 ASO SEQ ID NO:5. In FIGS. 10 A-C, the total live PC3 cell numbers were assessed 48 hours after treatment with Metformin, Doxycycline and docetaxel both alone and in combination with MCT4 ASO SEQ ID NO:5.

The mark [1] stands for this setting: Table A, ASOs transfected at 100 nM for 48 hours unless otherwise indicated.
[2] abbreviates: Table B, SEQ ID NO 1 and 16 mer truncations.

Turning to “35 (dC*dT*dT*dC*dA*dC*dC*dG*dC*dA*dG*dA*dT*dC*dC*dA*dC*dT*dC*dT; antisense; listed as Homo sapiens) [compound 35]”, the “% MCT4 Inhibition” value with MCT4 (setting [1]) is -10.07%.

On to “36 (dA*dA*dC*dA*dC*dT*dC*dC*dA*dC*dC*dC*dA*dC*dA*dC*dG*dC*dA*dG; antisense; listed as Homo sapiens) [compound 36]”, for which, in the data set on MCT4 (setting [1]), the “% MCT4 Inhibition” value came to 9.33%.

Take “37 (dC*dC*dA*dG*dC*dC*dA*dC*dT*dC*dA*dG*dA*dC*dA*dC*dT*dT*dG*dT; antisense; listed as Homo sapiens) [compound 37]”: in the data set on MCT4 (setting [1]), the “% MCT4 Inhibition” value stood at 33.14%.

In the case of “38 (dG*dG*dC*dC*dA*dC*dC*dG*dC*dC*dT*dC*dC*dA*dT*dC*dA*dG*dC*dA; antisense; listed as Homo sapiens) [compound 38]”, the “% MCT4 Inhibition” value with MCT4 (setting [1]) worked out at 45.92%.

Regarding “39 (dC*dC*dT*dG*dA*dG*dC*dC*dA*dG*dT*dC*dC*dA*dG*dT*dT*dT*dG*dT; antisense; listed as Homo sapiens) [compound 39]”, in the data set on MCT4 (setting [1]), the “% MCT4 Inhibition” value amounted to 39.46%.

In the case of “40 (dC*dC*dC*dA*dC*dC*dC*dA*dC*dC*dC*dT*dC*dC*dC*dA*dT*dT*dA*dA; antisense; listed as Homo sapiens) [compound 40]”, in the data set with MCT4 (setting [1]), the “% MCT4 Inhibition” value is given as -42.05%.

For the molecule “41 (dG*dC*dT*dT*dC*dT*dG*dT*dA*dC*dC*dT*dC*dC*dT*dC*dC*dC*dT*dG; antisense; listed as Homo sapiens) [compound 41]”, the “% MCT4 Inhibition” value with MCT4 (setting [1]) came out at 17.02%.

On to “42 (dT*dG*dT*dC*dG*dC*dT*dG*dT*dA*dG*dC*dC*dG*dA*dT*dC*dC*dC; antisense; listed as Homo sapiens) [compound 42]”, for which, in the data set on MCT4 (setting [1]), the “% MCT4 Inhibition” value was 21.20%.

In the case of “43 (TTAAAGTCACGTTGTCTCG; listed as DNA, chemistry not fully specified; listed as Homo sapiens) [compound 43]”, the “% MCT4 Inhibition” value with MCT4 (setting [1]) is given as 0.27%.

On to “44 (TTGCGGCTTGGCTTCACCG; listed as DNA, chemistry not fully specified; listed as Homo sapiens) [compound 44]”, for which the “% MCT4 Inhibition” value with MCT4 (setting [1]) was 31.16%.

For “45 (dC*dA*dC*dA*dG*dC*dT*dC*dC*dT*dC*dC*dC*dA*dT*dG*dG*dC*dC*dA*dG*dG; listed as Rattus norvegicus) [compound 45]”, the “% MCT4 Inhibition” value with MCT4 (setting [1]) is on record as 22.4%.

For the molecule “46 (dA*dT*dG*dG*dC*dC*dA*dG*dG*dA*dG*dG*dG*dT*dT*dG; antisense; listed as Homo sapiens) [compound 46]”, the “% MCT4 Inhibition” value in the data set on MCT4 (setting [1]) and in the data set on MCT4 (setting [2]) was 76.03% in each case.

For the molecule “47 (dC*dA*dT*dG*dG*dC*dC*dA*dG*dG*dA*dG*dG*dG*dT*dT; antisense; listed as Homo sapiens) [compound 47]”, the “% MCT4 Inhibition” value in the data set on MCT4 (setting [1]) and with MCT4 (setting [2]) was 81.21% in each case.

Consider “48 (dC*dC*dA*dT*dG*dG*dC*dC*dA*dG*dG*dA*dG*dG*dG*dT; antisense; listed as Homo sapiens) [compound 48]”, for which the “% MCT4 Inhibition” value in the data set with MCT4 (setting [1]) and in the data set with MCT4 (setting [2]) was 77.65% in each case.

For “49 (dC*dC*dC*dA*dT*dG*dG*dC*dC*dA*dG*dG*dA*dG*dG*dG; antisense; listed as Homo sapiens) [compound 49]”, the “% MCT4 Inhibition” value in the data set on MCT4 (setting [1]) and in the data set with MCT4 (setting [2]) was 65.76% each time.

For “50 (dT*dC*dC*dC*dA*dT*dG*dG*dC*dC*dA*dG*dG*dA*dG*dG; antisense; listed as Homo sapiens) [compound 50]”, the “% MCT4 Inhibition” value in the data set on MCT4 (setting [1]) and in the data set with MCT4 (setting [2]) was 30.52% each time.

Consider “51 (dC*dC*dT*dT*dC*dC*dC*dT*dG*dA*dA*dG*dG*dT*dT*dC*dC*dT*dC*dC; antisense) [compound 51]”, for which the “% MCT4 Inhibition” value in the data set on MCT4 (setting [1]) is recorded as 0.00%.

Consider `CC(=O)O[C@@]12CO[C@@H]1C[C@H](O)[C@@]1(C)C(=O)[C@H](O)C3=C(C)[C@@H](OC(=O)[C@H](O)[C@@H](NC(=O)OC(C)(C)C)c4ccccc4)C[C@@](O)([C@@H](OC(=O)c4ccccc4)[C@H]21)C3(C)C` [Docetaxel], for which the IC50 in the data set with PC3 cells came to 0.0025 µM.

Take `C[C@H]1c2cccc(O)c2C(=O)C2=C(O)[C@]3(O)C(=O)C(C(N)=O)=C(O)[C@@H](N(C)C)[C@@H]3[C@@H](O)[C@@H]21` [Doxycycline]: the IC50 in the data set with PC3 cells came out at 15 µM.

With `CN(C)C(=N)N=C(N)N` [Metformin], the IC50 with PC3 cells was found to be 4000 µM.
